Measurements reported in patent US8623857B2, “N-phenyl imidazole carboxamide inhibitors of 3-phosphoinositide-dependent protein kinase-1” (Merck Sharp & Dohme Corp., priority 2010, dated 2014).

These molecules were tested against T1, recombinant human PDK1 (Homo sapiens, UniProt O15530) (assay: PDK1 IMAP fluorescence polarization assay (inhibition of peptide substrate phosphorylation)). Details: Table 6; 10 nM PDK1 enzyme, 100 nM peptide substrate, 100 nM PIFtide, 2.5 uM ATP, 1.5 hours.
T1 construct: containing amino acids 51-556 of the human PDK1 enzyme; made in house; host or cells: Sf9 insect cells
T1 sequence (O15530 51-556): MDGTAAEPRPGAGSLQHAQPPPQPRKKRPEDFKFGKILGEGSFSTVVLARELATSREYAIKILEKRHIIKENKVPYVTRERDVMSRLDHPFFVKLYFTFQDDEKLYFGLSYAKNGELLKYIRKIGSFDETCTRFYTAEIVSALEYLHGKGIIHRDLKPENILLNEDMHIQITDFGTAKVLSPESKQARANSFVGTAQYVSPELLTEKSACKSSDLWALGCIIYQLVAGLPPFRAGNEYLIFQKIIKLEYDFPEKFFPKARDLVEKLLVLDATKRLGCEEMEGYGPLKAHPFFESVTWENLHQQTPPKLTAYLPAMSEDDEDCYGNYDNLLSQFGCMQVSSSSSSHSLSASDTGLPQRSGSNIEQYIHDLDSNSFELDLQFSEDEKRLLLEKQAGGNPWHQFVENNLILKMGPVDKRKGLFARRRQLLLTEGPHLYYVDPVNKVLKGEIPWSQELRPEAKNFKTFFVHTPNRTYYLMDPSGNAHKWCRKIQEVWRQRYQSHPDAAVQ
Format: biochemical
With Cc1cc(-c2c[nH]c(C(=O)Nc3cccc(F)c3N3CCC(C)(CN)CC3)n2)ccn1 [Compound 55, N-[2-[4-(aminomethyl)-4-methyl-1-piperidinyl]-3-fluorophenyl]-4-(2-methyl-4-pyridinyl)-1H-imidazole-2-carboxamide] the IC50 was 51 to 250 nM.
Work on COC(=O)c1cccc(-c2c[nH]c(C(=O)Nc3cccc(F)c3N3CCC(CN)CC3)n2)c1 [Compound 56, methyl 3-[2-[[[2-[4-(aminomethyl)-1-piperidinyl]-3-fluorophenyl]amino]carbonyl]-1H-imidazol-4-yl]benzoate] yielded an IC50 of 51 to 250 nM.
With CNCC1CCN(c2c(F)cccc2NC(=O)c2nc(-c3ccnc(C)c3)c[nH]2)CC1 [Compound 57, N-[3-fluoro-2-[4-[(methylamino)methyl]-1-piperidinyl]phenyl]-4-(2-methyl-4-pyridinyl)-1H-imidazole-2-carboxamide] the IC50 was 251 to 1000 nM.
Cc1cc(-c2c[nH]c(C(=O)Nc3cccc(F)c3N3CC4CNCC4C3)n2)ccn1 (stereo not shown) [Compound 58, N-[3-fluoro-2-(hexahydropyrrolo[3,4-c]pyrrol-2(1H)-yl)phenyl]-4-(2-methyl-4-pyridinyl)-1H-imidazole-2-carboxamide] was tested, and the IC50 was 1000 to 5000 nM.
For CNC(=O)C1CCN(c2c(F)cccc2NC(=O)c2nc(-c3ccnc(C)c3)c[nH]2)CC1 [Compound 59, 1-[2-fluoro-6-[[[4-(2-methyl-4-pyridinyl)-1H-imidazol-2-yl]carbonyl]amino]phenyl]-N-methyl-4-piperidinecarboxamide], the IC50 was 1000 to 5000 nM.
CCNC(=O)C1CCN(c2c(F)cccc2NC(=O)c2nc(-c3ccnc(C)c3)c[nH]2)CC1 [Compound 60, N-ethyl-1-[2-fluoro-6-[[[4-(2-methyl-4-pyridinyl)-1H-imidazol-2-yl]carbonyl]amino]phenyl]-4-piperidinecarboxamide] was tested, and the IC50 was 1000 to 5000 nM.
Cc1cc(-c2c[nH]c(C(=O)Nc3cccc(F)c3N3CCC(C(=O)N(C)C)CC3)n2)ccn1 [Compound 61, 1-[2-fluoro-6-[[[4-(2-methyl-4-pyridinyl)-1H-imidazol-2-yl]carbonyl]amino]phenyl]-N,N-dimethyl-4-piperidinecarboxamide] gave an IC50 of 1000 to 5000 nM.
In the case of Cc1cc(-c2c[nH]c(C(=O)Nc3cccc(F)c3N3CCC(C(=O)NCC(O)C(F)(F)F)CC3)n2)ccn1 (stereo not shown) [Compound 62, 1-[2-fluoro-6-[[[4-(2-methyl-4-pyridinyl)-1H-imidazol-2-yl]carbonyl]amino]phenyl]-N-(3,3,3-trifluoro-2-hydroxypropyl)-4-piperidinecarboxamide], the IC50 is reported as 1000 to 5000 nM.
With NCC1CCN(c2c(F)cccc2NC(=O)c2nc(-c3cncnc3)c[nH]2)CC1 [Compound 63, N-[2-[4-(aminomethyl)-1-piperidinyl]-3-fluorophenyl]-4-(5-pyrimidinyl)-1H-imidazole-2-carboxamide] the IC50 was 1000 to 5000 nM.
Cc1cc(-c2c[nH]c(C(=O)Nc3cccc(F)c3N3CCC(C(=O)N4CC[C@H](F)C4)CC3)n2)ccn1 [Compound 64, N-[3-fluoro-2-[4-[(3(S)-fluoro-1-pyrrolidinyl)carbonyl]-1-piperidinyl]phenyl]-4-(2-methyl-4-pyridinyl)-1H-imidazole-2-carboxamide] gave an IC50 of 1000 to 5000 nM.
Cc1cc(-c2c[nH]c(C(=O)Nc3cccc(F)c3N3CCC(C(=O)N[C@H](C)c4ccccc4)CC3)n2)ccn1 [Compound 65, 1-[2-fluoro-6-[[[4-(2-methyl-4-pyridinyl)-1H-imidazol-2-yl]carbonyl]amino]phenyl]-N-(1(R)-phenylethyl)-4-piperidinecarboxamide] showed an IC50 of 1000 to 5000 nM.
Cc1cc(-c2c[nH]c(C(=O)Nc3cccc(F)c3N3CCC(C(=O)N4CCC4)CC3)n2)ccn1 [Compound 66, N-[2-[4-(1-azetidinylcarbonyl)-1-piperidinyl]-3-fluorophenyl]-4-(2-methyl-4-pyridinyl)-1H-imidazole-2-carboxamide] gave an IC50 of 1000 to 5000 nM.
For Cc1cc(-c2c[nH]c(C(=O)Nc3cccc(F)c3N3CCC(C(C)(C)N)CC3)n2)ccn1 [Compound 67, N-[2-[4-(1-amino-1-methylethyl)-1-piperidinyl]-3-fluorophenyl]-4-(2-methyl-4-pyridinyl)-1H-imidazole-2-carboxamide], the IC50 was 51 to 250 nM.
NCC1CCN(c2c(F)cccc2NC(=O)c2nc(-c3cc(C(N)=O)nc(O)n3)c[nH]2)CC1 [Compound 68, 6-[2-[[[2-[4-(aminomethyl)-1-piperidinyl]-3-fluorophenyl]amino]carbonyl]-1H-imidazol-4-yl]-2-hydroxy-4-pyrimidinecarboxamide] was tested, and the IC50 was 1 to 50 nM.
With NCC1CCN(c2c(F)cccc2NC(=O)c2nc(-c3cc(NCc4ccccc4)nc(N)n3)c[nH]2)CC1 [Compound 69, N-[2-[4-(aminomethyl)-1-piperidinyl]-3-fluorophenyl]-4-[2-amino-6-[(phenylmethyl)amino]-4-pyrimidinyl]-1H-imidazole-2-carboxamide] the IC50 was 1 to 50 nM.
NCC1CCN(c2c(F)cccc2NC(=O)c2nc(-c3cc(NCc4ccc(C(F)(F)F)cc4)nc(N)n3)c[nH]2)CC1 [Compound 70, N-[2-[4-(aminomethyl)-1-piperidinyl]-3-fluorophenyl]-4-[2-amino-6-[[[4-(trifluoromethyl)phenyl]methyl]amino]-4-pyrimidinyl]-1H-imidazole-2-carboxamide] showed an IC50 of 51 to 250 nM.
Molecule NCC1CCN(c2c(F)cccc2NC(=O)c2nc(-c3cc(NCc4ccc(F)cc4)nc(N)n3)c[nH]2)CC1 [Compound 71, 4-[2-amino-6-[[(4-fluorophenyl)methyl]amino]-4-pyrimidinyl]-N-[2-[4-(aminomethyl)-1-piperidinyl]-3-fluorophenyl]-1H-imidazole-2-carboxamide] has an IC50 of 1 to 50 nM.
Work on NCC1CCN(c2c(F)cccc2NC(=O)c2nc(-c3cc(N[C@@H](CO)c4ccccc4)nc(N)n3)c[nH]2)CC1 [Compound 72, 4-[2-amino-6-[[2-hydroxy-1(R)-phenylethyl]amino]-4-pyrimidinyl]-N-[2-[4-(aminomethyl)-1-piperidinyl]-3-fluorophenyl]-1H-imidazole-2-carboxamide] yielded an IC50 of 1 to 50 nM.
With NCC1CCN(c2c(F)cccc2NC(=O)c2nc(-c3cc(NCc4ccc(F)cc4)ncn3)c[nH]2)CC1 [Compound 73, N-[2-[4-(aminomethyl)-1-piperidinyl]-3-fluorophenyl]-4-[6-[[(4-fluorophenyl)methyl]amino]-4-pyrimidinyl]-1H-imidazole-2-carboxamide] the IC50 was 51 to 250 nM.
NCC1CCN(c2c(F)cccc2NC(=O)c2nc(-c3cc(NCc4ccc(F)c(F)c4)ncn3)c[nH]2)CC1 [Compound 74, N-[2-[4-(aminomethyl)-1-piperidinyl]-3-fluorophenyl]-4-[6-[[(3,4-difluorophenyl)methyl]amino]-4-pyrimidinyl]-1H-imidazole-2-carboxamide] was tested, and the IC50 was 51 to 250 nM.
Molecule NCC1CCN(c2c(F)cccc2NC(=O)c2nc(-c3cc(NCc4ccc(F)c(F)c4)nc(N)n3)c[nH]2)CC1 [Compound 75, 4-[2-amino-6-[[(3,4-difluorophenyl)methyl]amino]-4-pyrimidinyl]-N-[2-[4-(aminomethyl)-1-piperidinyl]-3-fluorophenyl]-1H-imidazole-2-carboxamide] has an IC50 of 1 to 50 nM.
COc1ccc(CNc2cc(-c3c[nH]c(C(=O)Nc4cccc(F)c4N4CCC(CN)CC4)n3)nc(N)n2)cc1OC [Compound 76, 4-[2-amino-6-[[(3,4-dimethoxyphenyl)methyl]amino]-4-pyrimidinyl]-N-[2-[4-(aminomethyl)-1-piperidinyl]-3-fluorophenyl]-1H-imidazole-2-carboxamide] showed an IC50 of 251 to 1000 nM.
In the case of NCC1CCN(c2c(F)cccc2NC(=O)c2nc(-c3cc(N[C@H](CO)c4ccccc4)nc(N)n3)c[nH]2)CC1 [Compound 77, 4-[2-amino-6-[(2-hydroxy-1(S)-phenylethyl)amino]-4-pyrimidinyl]-N-[2-[4-(aminomethyl)-1-piperidinyl]-3-fluorophenyl]-1H-imidazole-2-carboxamide], the IC50 is reported as 1 to 50 nM.
Cc1cc(-c2c[nH]c(C(=O)Nc3cccc(F)c3N3CCC(C(=O)N4CC5CCC(C4)O5)CC3)n2)ccn1 [Compound 78, N-[3-fluoro-2-[4-(8-oxa-3-azabicyclo[3.2.1]oct-3-ylcarbonyl)-1-piperidinyl]phenyl]-4-(2-methyl-4-pyridinyl)-1H-imidazole-2-carboxamide] showed an IC50 of 251 to 1000 nM.
With Cc1cc(-c2c[nH]c(C(=O)Nc3cccc(F)c3N3CCC(C(=O)N4CC5CC4CO5)CC3)n2)ccn1 (stereo not shown) [Compound 79, N-[3-fluoro-2-[4-(2-oxa-5-azabicyclo[2.2.1]hept-5-ylcarbonyl)-1-piperidinyl]phenyl]-4-(2-methyl-4-pyridinyl)-1H-imidazole-2-carboxamide] the IC50 was 1000 to 5000 nM.
Cc1cc(-c2c[nH]c(C(=O)Nc3cccc(F)c3N3CCC(C(=O)N4CCOCC4CO)CC3)n2)ccn1 (stereo not shown) [Compound 80, N-[3-fluoro-2-[4-[[3-(hydroxymethyl)-4-morpholinyl]carbonyl]-1-piperidinyl]phenyl]-4-(2-methyl-4-pyridinyl)-1H-imidazole-2-carboxamide] gave an IC50 of 251 to 1000 nM.
Cc1cc(-c2c[nH]c(C(=O)Nc3cccc(F)c3N3CCC(C(=O)N4CCOCC4CN)CC3)n2)ccn1 (stereo not shown) [Compound 81, N-[2-[4-[[3-(aminomethyl)-4-morpholinyl]carbonyl]-1-piperidinyl]-3-fluorophenyl]-4-(2-methyl-4-pyridinyl)-1H-imidazole-2-carboxamide] gave an IC50 of 51 to 250 nM.
Cc1cc(-c2c[nH]c(C(=O)Nc3cccc(F)c3N3CCC(C(N)=O)CC3)n2)ccn1 [Compound 82, 1-[2-fluoro-6-[[[4-(2-methyl-4-pyridinyl)-1H-imidazol-2-yl]carbonyl]amino]phenyl]-4-piperidinecarboxamide] gave an IC50 of 1000 to 5000 nM.
